The results in this text go back to ChEMBL document CHEMBL2434948, “Discovery, synthesis, and characterization of an orally bioavailable, brain penetrant inhibitor of mixed lineage kinase 3” (J Med Chem, 2013).

By IC50 is commonly meant the concentration at which inhibition is half-maximal. By inhibition is commonly meant the percentage by which the read-out fell short of the control.

Activity calls are given as the source filed them. No cut-off for these calls is given here.

Assay [1] deals with Mitogen-activated protein kinase kinase kinase 11 (Mus musculus, UniProt Q80XI6).
In assay [2] the target is Cytochrome P450 2C9 (Homo sapiens, UniProt P11712).
Description: Inhibition of CYP2C9 in human liver microsomes assessed as inhibition of midazolam metabolism by HPLC/MS analysis
In assay [3] the target is Cytochrome P450 3A4 (Homo sapiens, UniProt P08684).
Description: Inhibition of CYP3A4 in human liver microsomes assessed as inhibition of dextromethorphan metabolism by HPLC/MS analysis
Assay [4] deals with T1, Mitogen-activated protein kinase kinase kinase 11 (Homo sapiens, UniProt Q16584).
Description: Inhibition of MLK3 (unknown origin) after 20 mins by scintillation counting analysis in presence of [33P]-ATP
The target in assay [5] is Cytochrome P450 2D6 (Homo sapiens, UniProt P10635).
Description: Inhibition of CYP2D6 in human liver microsomes assessed as inhibition of diclofenac metabolism by HPLC/MS analysis
Assay [6] deals with Receptor-type tyrosine-protein kinase FLT3 (Homo sapiens) (UniProt P36888). Description: Inhibition of wild type human FLT3 at 1 umol by high throughput ATP-[33P] radiolabeled assay relative to control.
The target of assay [7] is T2, Leucine-rich repeat serine/threonine-protein kinase 2 (Homo sapiens, UniProt Q5S007).
Description: Inhibition of human wild type LRRK2 by qPCR analysis
In assay [8] the target is Inhibitor of nuclear factor kappa-B kinase subunit alpha (Homo sapiens, UniProt O15111).
Description: Inhibition of wild type human IKKa by high throughput ATP-[33P] radiolabeled assay
The target of assay [9] is Cyclin-dependent kinase 2 (Homo sapiens, UniProt P24941).
Description: Inhibition of wild type human CDK2 by high throughput ATP-[33P] radiolabeled assay
The target in assay [10] is Inhibitor of nuclear factor kappa-B kinase subunit beta (Homo sapiens, UniProt O14920).
Description: Inhibition of wild type human IKKb by high throughput ATP-[33P] radiolabeled assay
Assay [11] has as its target Tyrosine-protein kinase ABL1 (Homo sapiens, UniProt P00519, T315I).
Description: Inhibition of wild type human ABL1 T315I mutant by high throughput ATP-[33P] radiolabeled assay
Assay [12] addresses T3, Receptor-type tyrosine-protein kinase FLT3 (Homo sapiens, UniProt P36888).
T3 sequence (P36888 whole entry): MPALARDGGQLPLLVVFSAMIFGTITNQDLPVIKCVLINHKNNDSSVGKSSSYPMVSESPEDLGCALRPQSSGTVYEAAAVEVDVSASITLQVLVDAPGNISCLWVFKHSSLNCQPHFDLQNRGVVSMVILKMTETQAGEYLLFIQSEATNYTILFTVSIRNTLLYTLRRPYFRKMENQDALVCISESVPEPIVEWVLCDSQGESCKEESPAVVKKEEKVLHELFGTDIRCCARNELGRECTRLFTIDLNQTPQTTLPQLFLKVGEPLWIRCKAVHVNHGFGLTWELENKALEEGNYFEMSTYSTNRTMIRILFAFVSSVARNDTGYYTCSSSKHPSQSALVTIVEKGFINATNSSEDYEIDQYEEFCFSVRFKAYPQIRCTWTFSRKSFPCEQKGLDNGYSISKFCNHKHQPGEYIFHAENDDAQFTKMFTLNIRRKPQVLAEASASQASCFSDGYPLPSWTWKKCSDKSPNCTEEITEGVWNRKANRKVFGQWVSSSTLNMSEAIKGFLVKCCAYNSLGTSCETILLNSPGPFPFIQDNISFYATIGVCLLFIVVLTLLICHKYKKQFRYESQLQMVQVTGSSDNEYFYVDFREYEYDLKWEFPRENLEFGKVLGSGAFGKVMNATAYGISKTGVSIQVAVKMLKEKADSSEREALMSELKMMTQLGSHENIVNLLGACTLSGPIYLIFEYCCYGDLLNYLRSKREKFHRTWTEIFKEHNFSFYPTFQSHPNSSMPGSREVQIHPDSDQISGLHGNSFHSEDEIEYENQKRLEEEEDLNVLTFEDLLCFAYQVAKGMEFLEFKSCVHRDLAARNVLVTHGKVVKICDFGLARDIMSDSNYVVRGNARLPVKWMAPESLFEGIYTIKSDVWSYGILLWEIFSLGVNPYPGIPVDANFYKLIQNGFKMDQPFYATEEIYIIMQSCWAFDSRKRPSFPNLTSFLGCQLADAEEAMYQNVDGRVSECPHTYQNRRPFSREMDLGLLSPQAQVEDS
Description: cell-based.
Description: Inhibition of FLT3-L-stimulated wild type full length human FLT3 autophosphorylation expressed in MEF preincubated for 90 mins followed by FLT3-L stimulation measured after 5 mins by ELISA

The target in assay [13] is T3, Receptor-type tyrosine-protein kinase FLT3.
Description: Inhibition of wild type human FLT3 by high throughput ATP-[33P] radiolabeled assay
For assay [14], the target named is Insulin receptor (Homo sapiens, UniProt P06213).
Description: Inhibition of wild type human IR by high throughput ATP-[33P] radiolabeled assay
Assay [15] deals with 5'-AMP-activated protein kinase catalytic subunit alpha-2 (Homo sapiens) (UniProt P54646). Description: Inhibition of human wild type AMPKalpha2 at 1 uM by qPCR analysis relative to control. Background: In qPCR the cycle at which signal appears reflects the starting amount.
In assay [16] the target is Mitogen-activated protein kinase kinase kinase kinase 4 (Homo sapiens) (UniProt O95819). Description: Binding affinity to human wild type MAP4K4 at 1 uM by qPCR analysis.
Assay [17] addresses T4, Mitogen-activated protein kinase kinase kinase 9 (Homo sapiens, UniProt P80192). Briefly: Inhibition of human wild type MLK1 at 1 uM by qPCR analysis relative to control.
For assay [18], the target named is Receptor-type tyrosine-protein kinase FLT3 (Homo sapiens) (UniProt P36888). Description: Inhibition of human wild type FLT3 at 1 uM by qPCR analysis relative to control.
Assay [19] has as its system Leucine-rich repeat serine/threonine-protein kinase 2 (Homo sapiens), Q5S007 [G2019S]. Briefly: Inhibition of human LRRK2 G2019S mutant at 1 uM by qPCR analysis relative to control.
The target in assay [20] is Mast/stem cell growth factor receptor Kit (Homo sapiens) (UniProt P10721). Briefly: Inhibition of human wild type KIT at 1 uM by qPCR analysis relative to control.
Assay [21] concerns the target T5, Tyrosine-protein kinase ABL1 (Homo sapiens, UniProt P00519). Description: Inhibition of human ABL1 mutant at 1 uM by qPCR analysis.
The target of assay [22] is T2, Leucine-rich repeat serine/threonine-protein kinase 2. Description: Inhibition of human wild type LRRK2 at 1 uM by qPCR analysis relative to control.
Assay [23] addresses Calcium/calmodulin-dependent protein kinase type 1D (Homo sapiens) (UniProt Q8IU85). Description: Inhibition of human wild type CAMK1D at 1 uM by qPCR analysis relative to control.
Assay [24] addresses Ribosomal protein S6 kinase alpha-1 (Homo sapiens) (UniProt Q15418). Description: Inhibition of human wild type RSK1 at 1 uM by qPCR analysis.
The target of assay [25] is Calcium/calmodulin-dependent protein kinase type II subunit delta (Homo sapiens) (UniProt Q13557). Briefly: Inhibition of human wild type CAMK2D at 1 uM by qPCR analysis relative to control.
Assay [26] deals with Mitogen-activated protein kinase kinase kinase 10 (Homo sapiens, UniProt Q02779).
Description: Inhibition of MLK2 (unknown origin) after 20 mins in presence of [33P]-ATP
Assay [27] concerns the target Aurora kinase C (Homo sapiens) (UniProt Q9UQB9). Description: Inhibition of human wild type Aurora kinase C at 1 uM by qPCR analysis relative to control.
Assay [28] addresses Serine/threonine-protein kinase BRSK2 (Homo sapiens) (UniProt Q8IWQ3). Description: Inhibition of human wild type BRSK2 at 1 uM by qPCR analysis relative to control.
Assay [29] concerns the target T5, Tyrosine-protein kinase ABL1. Description: Inhibition of human wild type ABL1 at 1 uM by qPCR analysis relative to control.
The target of assay [30] is T1, Mitogen-activated protein kinase kinase kinase 11. This is another data set of the same source.
Description: Inhibition of MLK3 (unknown origin) after 20 mins in presence of [33P]-ATP
The target in assay [31] is Ribosomal protein S6 kinase alpha-6 (Homo sapiens) (UniProt Q9UK32). Description: Inhibition of human wild type RSK4 at 1 uM by qPCR analysis.
Assay [32] concerns the target TRAF2 and NCK-interacting protein kinase (Homo sapiens) (UniProt Q9UKE5). Briefly: Binding affinity to human wild type TNIK at 1 uM by qPCR analysis.
For assay [33], the target named is T4, Mitogen-activated protein kinase kinase kinase 9.
Description: Inhibition of MLK1 (unknown origin) after 20 mins in presence of [33P]-ATP
In assay [34] the target is Calcium/calmodulin-dependent protein kinase type II subunit alpha (Homo sapiens) (UniProt Q9UQM7). Description: Inhibition of human wild type CAMK2A at 1 uM by qPCR analysis relative to control.
Assay [35] deals with Aurora kinase A (Homo sapiens) (UniProt O14965). Briefly: Inhibition of human wild type Aurora kinase A at 1 uM by qPCR analysis relative to control.

Cytochrome P450 2C9, sequence (P11712 whole entry): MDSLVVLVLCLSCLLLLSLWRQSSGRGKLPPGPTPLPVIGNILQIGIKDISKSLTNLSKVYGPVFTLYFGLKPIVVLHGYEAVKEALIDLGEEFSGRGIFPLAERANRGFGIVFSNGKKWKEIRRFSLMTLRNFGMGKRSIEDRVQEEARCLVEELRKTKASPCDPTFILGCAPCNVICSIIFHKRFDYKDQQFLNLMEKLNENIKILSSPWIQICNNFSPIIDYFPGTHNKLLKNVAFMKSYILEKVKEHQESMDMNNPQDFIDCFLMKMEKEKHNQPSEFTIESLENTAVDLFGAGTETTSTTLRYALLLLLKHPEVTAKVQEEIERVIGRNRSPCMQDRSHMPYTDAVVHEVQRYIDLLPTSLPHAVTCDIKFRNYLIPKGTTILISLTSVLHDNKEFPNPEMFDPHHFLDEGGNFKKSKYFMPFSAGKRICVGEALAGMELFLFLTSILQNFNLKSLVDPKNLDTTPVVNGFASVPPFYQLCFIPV
Mitogen-activated protein kinase kinase kinase 11 (Mus musculus, UniProt Q80XI6), sequence (Q80XI6 whole entry): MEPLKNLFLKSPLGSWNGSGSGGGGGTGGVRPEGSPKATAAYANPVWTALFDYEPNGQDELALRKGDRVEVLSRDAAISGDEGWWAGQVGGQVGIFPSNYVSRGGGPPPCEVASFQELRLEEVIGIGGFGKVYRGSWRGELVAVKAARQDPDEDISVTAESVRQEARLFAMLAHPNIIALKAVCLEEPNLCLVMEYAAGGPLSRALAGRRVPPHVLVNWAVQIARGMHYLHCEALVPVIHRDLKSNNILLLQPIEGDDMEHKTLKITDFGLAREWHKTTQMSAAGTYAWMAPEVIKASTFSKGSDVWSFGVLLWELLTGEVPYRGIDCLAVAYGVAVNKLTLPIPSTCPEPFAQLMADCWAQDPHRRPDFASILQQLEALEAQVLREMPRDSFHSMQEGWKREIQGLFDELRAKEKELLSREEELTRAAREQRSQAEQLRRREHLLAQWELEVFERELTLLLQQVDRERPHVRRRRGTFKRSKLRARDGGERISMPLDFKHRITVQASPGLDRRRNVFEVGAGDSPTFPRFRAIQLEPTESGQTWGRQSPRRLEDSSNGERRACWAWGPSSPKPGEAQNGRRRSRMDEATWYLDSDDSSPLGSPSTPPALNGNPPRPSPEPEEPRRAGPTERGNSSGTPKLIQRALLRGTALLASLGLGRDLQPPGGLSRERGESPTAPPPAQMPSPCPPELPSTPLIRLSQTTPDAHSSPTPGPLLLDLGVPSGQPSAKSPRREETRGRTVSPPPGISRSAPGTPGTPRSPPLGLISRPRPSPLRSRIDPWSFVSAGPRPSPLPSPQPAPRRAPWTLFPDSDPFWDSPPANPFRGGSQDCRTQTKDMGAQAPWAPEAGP
T2 sequence (Q5S007 whole entry): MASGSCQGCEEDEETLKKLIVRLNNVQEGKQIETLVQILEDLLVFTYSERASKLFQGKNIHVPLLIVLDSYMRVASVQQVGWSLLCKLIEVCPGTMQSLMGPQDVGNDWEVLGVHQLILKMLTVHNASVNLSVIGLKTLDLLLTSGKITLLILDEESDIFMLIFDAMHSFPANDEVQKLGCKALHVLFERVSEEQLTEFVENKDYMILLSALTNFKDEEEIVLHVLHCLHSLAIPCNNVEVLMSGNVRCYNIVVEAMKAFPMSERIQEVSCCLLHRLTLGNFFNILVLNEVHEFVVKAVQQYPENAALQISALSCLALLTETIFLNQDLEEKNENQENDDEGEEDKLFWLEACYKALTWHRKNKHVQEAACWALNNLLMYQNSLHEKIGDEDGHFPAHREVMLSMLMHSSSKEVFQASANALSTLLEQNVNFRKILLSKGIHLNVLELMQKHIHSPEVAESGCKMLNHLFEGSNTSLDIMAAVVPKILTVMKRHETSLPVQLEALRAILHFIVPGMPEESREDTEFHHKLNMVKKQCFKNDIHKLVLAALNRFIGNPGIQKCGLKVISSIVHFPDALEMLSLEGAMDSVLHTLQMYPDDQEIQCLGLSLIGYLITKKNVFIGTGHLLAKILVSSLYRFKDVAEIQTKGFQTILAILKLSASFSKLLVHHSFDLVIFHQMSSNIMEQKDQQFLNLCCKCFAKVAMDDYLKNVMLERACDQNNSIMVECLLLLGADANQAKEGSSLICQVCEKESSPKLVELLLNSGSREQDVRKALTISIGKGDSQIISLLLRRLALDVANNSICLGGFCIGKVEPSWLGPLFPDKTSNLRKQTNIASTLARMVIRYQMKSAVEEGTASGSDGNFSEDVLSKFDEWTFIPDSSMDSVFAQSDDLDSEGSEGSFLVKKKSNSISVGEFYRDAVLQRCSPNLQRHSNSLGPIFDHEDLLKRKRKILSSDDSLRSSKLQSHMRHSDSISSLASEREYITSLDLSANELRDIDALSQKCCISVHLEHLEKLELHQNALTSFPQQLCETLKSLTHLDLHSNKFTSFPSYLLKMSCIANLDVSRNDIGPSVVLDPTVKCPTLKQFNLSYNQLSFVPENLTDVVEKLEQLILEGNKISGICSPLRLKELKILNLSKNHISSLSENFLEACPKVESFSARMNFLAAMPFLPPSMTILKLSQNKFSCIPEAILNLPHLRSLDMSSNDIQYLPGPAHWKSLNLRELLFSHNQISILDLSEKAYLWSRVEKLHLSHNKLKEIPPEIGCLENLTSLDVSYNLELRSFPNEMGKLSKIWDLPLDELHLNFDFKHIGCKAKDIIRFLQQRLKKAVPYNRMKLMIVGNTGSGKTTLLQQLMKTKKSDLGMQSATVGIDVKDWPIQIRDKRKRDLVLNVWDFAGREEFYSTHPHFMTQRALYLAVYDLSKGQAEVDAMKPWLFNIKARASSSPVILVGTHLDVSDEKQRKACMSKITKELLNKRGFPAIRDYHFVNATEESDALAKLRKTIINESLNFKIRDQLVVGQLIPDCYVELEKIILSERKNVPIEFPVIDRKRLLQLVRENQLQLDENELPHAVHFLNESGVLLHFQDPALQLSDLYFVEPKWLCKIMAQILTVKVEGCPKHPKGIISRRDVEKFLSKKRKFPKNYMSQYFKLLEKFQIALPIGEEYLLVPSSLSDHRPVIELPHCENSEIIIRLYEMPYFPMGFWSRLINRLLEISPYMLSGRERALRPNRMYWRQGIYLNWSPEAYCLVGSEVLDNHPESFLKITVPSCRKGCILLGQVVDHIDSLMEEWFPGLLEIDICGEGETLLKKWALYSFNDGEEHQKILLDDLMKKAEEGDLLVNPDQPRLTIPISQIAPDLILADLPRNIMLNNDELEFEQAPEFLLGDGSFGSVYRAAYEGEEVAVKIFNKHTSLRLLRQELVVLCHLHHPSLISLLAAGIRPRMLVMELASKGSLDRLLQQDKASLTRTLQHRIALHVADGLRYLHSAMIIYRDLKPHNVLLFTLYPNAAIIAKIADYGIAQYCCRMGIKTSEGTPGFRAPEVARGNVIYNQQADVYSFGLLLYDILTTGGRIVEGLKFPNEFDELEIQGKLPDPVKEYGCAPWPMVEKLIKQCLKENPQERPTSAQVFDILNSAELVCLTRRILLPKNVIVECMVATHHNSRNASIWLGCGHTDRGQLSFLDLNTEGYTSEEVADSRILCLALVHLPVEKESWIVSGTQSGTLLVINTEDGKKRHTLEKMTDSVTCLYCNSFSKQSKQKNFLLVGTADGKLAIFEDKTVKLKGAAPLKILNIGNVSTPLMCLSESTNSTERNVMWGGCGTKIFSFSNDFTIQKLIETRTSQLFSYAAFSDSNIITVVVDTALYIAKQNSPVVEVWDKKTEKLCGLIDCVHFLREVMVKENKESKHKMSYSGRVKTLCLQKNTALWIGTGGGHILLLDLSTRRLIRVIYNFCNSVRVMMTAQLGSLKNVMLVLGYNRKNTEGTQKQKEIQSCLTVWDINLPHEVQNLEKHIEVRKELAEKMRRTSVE
Cytochrome P450 3A4, sequence (P08684 whole entry): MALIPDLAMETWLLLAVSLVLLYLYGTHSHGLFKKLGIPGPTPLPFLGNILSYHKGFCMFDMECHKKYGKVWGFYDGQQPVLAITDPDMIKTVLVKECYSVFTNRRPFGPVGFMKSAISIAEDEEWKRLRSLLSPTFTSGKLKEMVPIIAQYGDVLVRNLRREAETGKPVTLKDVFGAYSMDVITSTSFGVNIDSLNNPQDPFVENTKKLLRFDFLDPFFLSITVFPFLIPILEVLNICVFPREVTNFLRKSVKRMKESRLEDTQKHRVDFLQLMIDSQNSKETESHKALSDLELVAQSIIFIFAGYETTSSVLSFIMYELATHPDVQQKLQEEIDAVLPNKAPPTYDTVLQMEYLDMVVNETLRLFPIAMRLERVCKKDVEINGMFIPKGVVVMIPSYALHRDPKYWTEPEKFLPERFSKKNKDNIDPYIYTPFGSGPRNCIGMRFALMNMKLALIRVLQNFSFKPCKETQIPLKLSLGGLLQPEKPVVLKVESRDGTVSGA
Cytochrome P450 2D6, sequence (P10635 whole entry): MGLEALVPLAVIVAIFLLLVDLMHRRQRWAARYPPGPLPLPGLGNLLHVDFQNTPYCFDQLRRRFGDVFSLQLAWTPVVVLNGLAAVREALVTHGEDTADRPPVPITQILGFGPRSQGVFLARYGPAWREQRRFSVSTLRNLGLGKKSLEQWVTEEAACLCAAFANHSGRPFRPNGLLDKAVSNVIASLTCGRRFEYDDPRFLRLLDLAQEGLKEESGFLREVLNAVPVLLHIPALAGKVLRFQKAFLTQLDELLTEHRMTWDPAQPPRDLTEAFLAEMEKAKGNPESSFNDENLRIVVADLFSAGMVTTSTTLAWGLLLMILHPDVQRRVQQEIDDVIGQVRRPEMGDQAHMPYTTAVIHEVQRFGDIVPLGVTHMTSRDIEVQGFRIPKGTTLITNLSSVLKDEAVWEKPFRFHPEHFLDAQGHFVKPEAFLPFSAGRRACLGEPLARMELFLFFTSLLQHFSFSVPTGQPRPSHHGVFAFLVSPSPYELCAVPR
Leucine-rich repeat serine/threonine-protein kinase 2 (Homo sapiens), Q5S007 [G2019S], sequence (Q5S007 whole entry G2019S): as the sequence (Q5S007 whole entry) above, with G2019S counted along it

With `COc1cc(-c2cnc3[nH]cc(-c4cnc(N)nc4)c3c2)cc(OC)c1OC`, the IC50 in assay [1] was 990 nM; in [2], over 30000 nM; in [3], over 30000 nM; in assay [4] it was 9 nM; in [5], over 30000 nM.

In the case of `Nc1ncc(-c2cnc3[nH]cc(-c4ccc5[nH]ccc5c4)c3c2)cn1`, the IC50 in [1] was 510 nM; in assay [2], over 30000 nM; in [3], 21800 nM; in assay [4] it was 78 nM; in assay [5], 13200 nM. Further, the inhibition in assay [6] worked out at 97%.

Turning to `COc1cc(-c2cnc3[nH]cc(-c4ccc5[nH]ccc5c4)c3c2)cc(OC)c1OC`, the 50% inhibitory concentration (IC50) in [1] was 2700 nM; in assay [2] it was over 30000 nM; in [3], over 30000 nM; in [4], 3 nM; in assay [5] it was over 30000 nM; in assay [7], 35 nM. This compound also returned an inhibition in assay [6] of 98%.

As for `COc1cc(-c2cnc3[nH]cc(-c4ccc(N)nc4)c3c2)cc(OC)c1OC`, the IC50 was 120 nM in [1]; over 30000 nM in assay [2]; over 30000 nM in [3]; 7 nM in assay [4]; over 30000 nM in [5]; 5 nM in [7]. In addition, the inhibition in [6] amounted to 99%.

Turning to `Nc1ccc(-c2cnc3[nH]cc(-c4ccc5[nH]ccc5c4)c3c2)cn1`, the IC50 came out at 430 nM in [1]; 13700 nM in [2]; 4200 nM in assay [3]; 19 nM in assay [4]; 3700 nM in [5]; 46 nM in assay [7]. This compound showed an inhibition in [6] of 98%.

Consider `CN1CCN(Cc2ccc(-c3cnc4[nH]cc(-c5cnc6[nH]ccc6c5)c4c3)cc2)CC1`, for which the IC50 amounted to 330 nM in [8]; 720 nM in assay [9]; 288 nM in assay [10]; 21 nM in assay [4]; 285 nM in [11]; 730 nM in assay [12]. Also, the IC50 in assay [13] was 9.5 nM; in assay [14] it was 1290 nM.

With `COc1cc(-c2cnc3[nH]c(=O)n(-c4ccc5[nH]ccc5c4)c3n2)cc(OC)c1OC`, in [6], the inhibition turned out to be 88%. Also, half-maximal inhibition in assay [7] (IC50) required 2970 nM.

On to `CCSCc1ccc2c(c1)c1c3c(c4c5cc(CSCC)ccc5n5c4c1n2[C@H]1C[C@](O)(C(=O)OC)[C@]5(C)O1)CNC3=O` [CEP-1347], for which the inhibition in assay [15] is 98%; in [17], over 99%; in assay [18] it was over 99%; in assay [19], 98%; in [20], over 99%; in [22], 100%. Further, the inhibition in assay [23] was over 99%; in assay [25] it was 87%; in [27], over 99%; in assay [28], 94%; in assay [34] it was 84%; in [35], over 99%. In addition, the inhibition result in assay [16], in assay [24], in [31] and in [32] was “Active” throughout. Moreover, the inhibition entry in assay [21] and in assay [29] was “inactive” throughout. Further, the half-maximal inhibitory concentration (IC50) in assay [26] is 2 nM; in assay [30], 6 nM; in assay [33], under 1 nM.
